Source: the NIST ThermoML archive (doi:10.1021/acs.jced.6b00269)
± gives the expanded uncertainty stated by the source.

Conditions: for viscosity / mass density: 101.33 kPa, Liquid; for viscosity: Cone and plate viscometry; for mass density: Vibrating tube method; for Glass transition temperature: DSC; for Normal melting temperature: Crystal, DTA

SMILES	viscosity (278.15 K) [mPa·s]	viscosity (283.15 K) [mPa·s]	mass density (283.15 K) [kg/m3]	viscosity (288.15 K) [mPa·s]	mass density (288.15 K) [kg/m3]	viscosity (293.15 K) [mPa·s]	mass density (293.15 K) [kg/m3]	mass density (295.15 K) [kg/m3]	viscosity (298.15 K) [mPa·s]	mass density (298.15 K) [kg/m3]	viscosity (303.15 K) [mPa·s]	mass density (303.15 K) [kg/m3]	viscosity (308.15 K) [mPa·s]	mass density (308.15 K) [kg/m3]	viscosity (313.15 K) [mPa·s]	mass density (313.15 K) [kg/m3]	viscosity (318.15 K) [mPa·s]	mass density (318.15 K) [kg/m3]	viscosity (323.15 K) [mPa·s]	mass density (323.15 K) [kg/m3]	also measured
CCCCCCn1cc[n+](C)c1.N#Cc1ccc[n-]1 [1-hexyl-3-methylimidazolium 2-cyanopyrrolide]	1540 ± 140	902 ± 78	1031 ± 5.7	553 ± 45	1027.9 ± 5.7	355 ± 27	1024.9 ± 5.7	1023.6 ± 5.7	239 ± 17	1021.8 ± 5.6	167 ± 12	1018.8 ± 5.6	122 ± 8	1015.8 ± 5.6	91 ± 6	1012.8 ± 5.5	70 ± 5	1009.9 ± 5.5	55 ± 4	1006.9 ± 5.5	mass density (328.15 K): 1003.9 ± 5.4 kg/m3; mass density (333.15 K): 1001 ± 5.4 kg/m3; mass density (338.15 K): 998 ± 5.4 kg/m3; mass density (343.15 K): 995.1 ± 5.3 kg/m3; mass density (348.15 K): 992.1 ± 5.3 kg/m3; mass density (353.15 K): 989.1 ± 5.3 kg/m3; Glass transition temperature: -65 ± 2 °C
CCCCCCn1cc[n+](C)c1.O=[N+]([O-])c1cn[n-]c1 [1-hexyl-3-methylimidazolium 4-nitropyrazolide]	3310 ± 340	1810 ± 170	1133.6 ± 7	1040 ± 92	1130 ± 6.9	633 ± 52	1126.6 ± 6.9	1125.3 ± 6.9	407 ± 32	1123.3 ± 6.8	275 ± 20	1120 ± 6.8	192 ± 14	1116.6 ± 6.8	139 ± 10	1113.4 ± 6.7	102 ± 7	1110.2 ± 6.7	79 ± 5	1107 ± 6.6	viscosity (328.15 K): 63 ± 4 mPa·s; mass density (328.15 K): 1103.8 ± 6.6 kg/m3; viscosity (333.15 K): 51 ± 3 mPa·s; mass density (333.15 K): 1100.6 ± 6.6 kg/m3; mass density (338.15 K): 1097.4 ± 6.5 kg/m3; mass density (343.15 K): 1094.2 ± 6.5 kg/m3; mass density (348.15 K): 1091.1 ± 6.5 kg/m3; mass density (353.15 K): 1087.9 ± 6.4 kg/m3; Normal melting temperature: 33 ± 2 °C; Glass transition temperature: -56 ± 2 °C
CC(=O)[O-].CCCCCCn1cc[n+](C)c1 [3-hexyl-1-methylimidazolium acetate]	12300 ± 1500	6460 ± 740	1025.7 ± 5.7	3550 ± 370	1022.7 ± 5.7	2060 ± 200	1019.6 ± 5.6	1018.4 ± 5.6	1270 ± 120	1016.6 ± 5.6	816 ± 69	1013.5 ± 5.5	537 ± 43	1010.4 ± 5.5	372 ± 28	1007.4 ± 5.5	265 ± 19	1004.5 ± 5.4	194 ± 14	1001.5 ± 5.4	viscosity (328.15 K): 147 ± 10 mPa·s; mass density (328.15 K): 998.5 ± 5.4 kg/m3; viscosity (333.15 K): 113 ± 8 mPa·s; mass density (333.15 K): 995.5 ± 5.3 kg/m3; viscosity (338.15 K): 90 ± 6 mPa·s; mass density (338.15 K): 992.6 ± 5.3 kg/m3; mass density (343.15 K): 989.6 ± 5.3 kg/m3; mass density (348.15 K): 986.7 ± 5.3 kg/m3; mass density (353.15 K): 983.7 ± 5.2 kg/m3
CCC=C[P+](CC)(CC)CC.O=[N+]([O-])c1cn[n-]c1 [(buten-1-yl)triethylphosphonium 4-nitropyrazolide]									134 ± 9		102 ± 7		79 ± 5		63 ± 4		52 ± 3				Normal melting temperature: 39 ± 2 °C
CCCC[P+](CC)(CC)CC.Cc1ncc([N+](=O)[O-])[n-]1 [butyltriethylphosphonium 2-methyl-5-nitroimidazolide]	2180 ± 210	1350 ± 120	1074.4 ± 6.3	858 ± 73	1071.3 ± 6.2	569 ± 46	1068.3 ± 6.2	1067.1 ± 6.2	391 ± 30	1065.3 ± 6.1	277 ± 20	1062.3 ± 6.1	202 ± 14	1059.3 ± 6.1	150 ± 10	1056.5 ± 6	115 ± 8	1053.6 ± 6	90 ± 6	1050.7 ± 6	viscosity (328.15 K): 72 ± 5 mPa·s; mass density (328.15 K): 1047.8 ± 5.9 kg/m3; viscosity (333.15 K): 58 ± 4 mPa·s; mass density (333.15 K): 1044.9 ± 5.9 kg/m3; mass density (338.15 K): 1042.1 ± 5.9 kg/m3; mass density (343.15 K): 1039.2 ± 5.8 kg/m3; mass density (348.15 K): 1036.4 ± 5.8 kg/m3; mass density (353.15 K): 1033.5 ± 5.8 kg/m3; Normal melting temperature: 17 ± 2 °C; Glass transition temperature: -71 ± 2 °C
